Measurements as given in patent US8715747B2, “Biocomposition stimulant of the immune system, anti-tumor and anti-HIV” (Pharmabrand S.A., priority 2007, dated 2014).

What was measured:
[1] = test system: prostate cancer with node metastases and invasion of the bladder floor; assay: Clinical observation: patient with prostate cancer, tumor markers PSA and CEA; assay type: in vivo, human; parameters: PSA: unit not given beside the values
Source text: The patient is an individual diagnosed with prostate cancer with node metastases and invasion of the bladder floor. […] In March 2003, PSA level was 1096, the carcinoembryonic antigen was 6.85.
Carcinoembryonic antigen is a substance that usually only appears during fetal development and reappears again in adults who develop certain types of cancer: colon, rectum, stomach, esophagus, liver, pancreas, bladder, and breast (female mammary gland), lung and prostate as well.
The test of carcinoembryonic antigen (CEA) plays an important role in monitoring patient outcomes with cancer and metastasis. Even though it can not be considered a final marker, it serves as a useful guide. Its constant increase means that therapy has not achieved positive results. A decrease indicates a trend towards regression of the lesion.
The patient starts with a daily dose of 250 mg of Flutamide (fluxus) until reaching a PSA of 252. After 4 months, PSA reaches 525. From this point, the patient receives a double dose of Flutamide until registering a PSA of 256. CEA level was 5.84. After three months PSA rises again to 580. The tumor becomes resistant to hormone therapy. […] At first, PSA level was 600 and CEA level was 8.86. […] CEA level has dropped to 6.51. PSA level has changed to 700, a much better value if compared to the resistance to flutamide.
The patient underwent surgery to improve the diameter of the urethra and to remove the catheter that started to produce frequent bleeding. After the surgery, the patient suffered a massive infection due to Escherichia coli bacteria. They received anti-bacterial treatment with good results. PSA reached 698. After the surgery, the administration of the composition of the invention re-started, and after 2 months, PSA dropped to 88 and CEA to 5.04. During the following 2 months, PSA level reached 10 ng/ml level. After 70 days, PSA registers 4 ng/ml levels, which are considered normal values. CEA level was 3.97. Currently, the patient has returned to work (August, 2005). They had also had dialysis due to complications during the surgery. The patient has been taking the composition in daily basis during the next two years, maintaining a good health condition. Despite the three dialysis sessions per week that they are receiving, […] general state is good; they manage to do everything by themself and exercises every morning; PSA is 15 but CEA has always been 2.5 ng/ml. During these two years (March, 2007), they have kept a strict diet and has not received any other type of anti-tumor therapy.

S. aureus = assay: Microbiological test for bactericidal properties (inhibition halo), S. aureus; assay type: cell-based, Staphylococcus aureus; settings: Gentamicin 2 μg/ml
Source text: Microbiological Tests to Determine Bactericidal Properties of the Aqueous and Ethanolic Extracts of the Composition of the Invention:
The inhibitory halo of FT001 registered a diameter of approximately 12 mm.

Molecule | PSA ([1]; 250 mg Flutamide daily, after 4 months) | PSA ([1]; daily dose of 250 mg Flutamide, start PSA 1096) | CEA level ([1]; double dose of Flutamide) | PSA ([1]; double dose of Flutamide) | PSA ([1]; double dose of Flutamide, after three months, PSA rises again) | halo of the lower standard (S. aureus) [mm]
CC(C)C(=O)Nc1ccc([N+](=O)[O-])c(C(F)(F)F)c1 [Flutamide] | 525 | 252 | 5.84 | 256 | 580 | –
Gentamicin | – | – | – | – | – | 12.2
